The values that follow come from PubChem BioAssay (NCI).

Each structure is given as a SMILES string.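 Compound exposure: 48 hours, 5 concentrations, 96-well plates. GI50 = concentration required for 50% inhibition of growth. TGI is the concentration that stops growth completely.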

Some test systems named below: HS 578T breast; MCF7 breast; COLO 205 colon; SNB-75 CNS; ACHN renal; KM12 colon; NCI-H226 lung; SF-295 CNS; NCI-H23 lung; BT-549 breast.
Holding throughout (assay): NCI-60 cell line screen, 48 h

For `CCC[CH2][Sn]([CH2]CCC)([CH2]CCC)/[C](=C/[Si](C)(C)c1ccccc1)c1ccc2c(c1)OCO2`, the GI50 is 42.6 µM with HS 578T breast; 20.7 µM in the assay on MCF7 breast; 18.7 µM in the assay on COLO 205 colon; 58.5 µM in the assay on SNB-75 CNS; 18.4 µM in the assay with ACHN renal; 16.2 µM in the assay on KM12 colon. Further, the GI50 was 19.9 µM in the assay on NCI-H226 lung, 26.8 µM with SF-295 CNS, 25.6 µM in the assay with NCI-H23 lung and 19.1 µM with BT-549 breast. For the same compound, the TGI in the assay with HS 578T breast was over 100 µM; in the assay on MCF7 breast, 53.7 µM; in the assay with COLO 205 colon it was 39 µM; with SNB-75 CNS it was over 100 µM; with ACHN renal, 36.2 µM; in the assay with KM12 colon, 34.1 µM. Further, the TGI was determined as 42.9 µM in the assay with NCI-H226 lung, 49.6 µM with SF-295 CNS, 92.9 µM in the assay on NCI-H23 lung and 44.3 µM in the assay with BT-549 breast.

On to `CCc1ccc2oc(=O)ccc2c1`, for which the TGI with HS 578T breast, in the assay with MCF7 breast, in the assay with COLO 205 colon, in the assay with SNB-75 CNS, in the assay on ACHN renal and with KM12 colon was over 100 µM in each case. Besides, the TGI with NCI-H226 lung, with SF-295 CNS, with NCI-H23 lung and with BT-549 breast was over 100 µM throughout.

In the case of `CC12CCC(=O)C(O1)C1C(=O)c3ccc4c(ccc5ccccc54)c3C(=O)C12` (stereo not drawn), the GI50 is 9.77 µM with HS 578T breast; 3.89 µM in the assay on MCF7 breast; 2.13 µM in the assay on COLO 205 colon; 20.5 µM in the assay with SNB-75 CNS; 3.13 µM in the assay on ACHN renal; 4.99 µM in the assay on KM12 colon. The GI50 in the assay with NCI-H226 lung was 5.78 µM; with SF-295 CNS it was 1.46 µM; in the assay on NCI-H23 lung, 4.15 µM; in the assay with BT-549 breast it was 6.69 µM. For the same compound, the TGI with HS 578T breast was over 26.1 µM; in the assay with MCF7 breast, 13.4 µM; in the assay on COLO 205 colon it was over 59.1 µM; in the assay with SNB-75 CNS it was 54 µM; in the assay on ACHN renal, 8.21 µM; in the assay with KM12 colon, 9.66 µM. Further, the TGI in the assay on NCI-H226 lung is 12.7 µM; with SF-295 CNS it was 3 µM; in the assay on NCI-H23 lung, 8.35 µM; in the assay on BT-549 breast, 13.2 µM.

Take `CCCCC#Cc1c(I)n(C2OC(CO[Si](C)(C)C(C)(C)C)C3OC(C)(C)OC32)c(=O)n(C(=O)c2ccccc2)c1=O` (stereo not drawn): the GI50 in the assay with HS 578T breast is 7.17 µM; in the assay with MCF7 breast, 2.14 µM; in the assay on COLO 205 colon, 1.59 µM; in the assay with SNB-75 CNS it was 14.1 µM; in the assay on ACHN renal it was 3 µM; in the assay with KM12 colon, 1.5 µM. In addition, the GI50 with NCI-H226 lung was 17.6 µM; in the assay on SF-295 CNS, 12.7 µM; in the assay on NCI-H23 lung it was 9.44 µM; in the assay on BT-549 breast, 8.98 µM. For the same compound, the TGI with HS 578T breast is 43.6 µM; in the assay with MCF7 breast, 5.59 µM; in the assay on COLO 205 colon it was 3.14 µM; with SNB-75 CNS it was 27.5 µM; in the assay on ACHN renal it was over 100 µM; with KM12 colon it was 3.05 µM. The TGI is 37.6 µM in the assay with NCI-H226 lung, 27.3 µM in the assay with SF-295 CNS, 27.3 µM in the assay on NCI-H23 lung and 20.4 µM in the assay on BT-549 breast.

Take `C=C(C)[C@@H]1CCc2c(O)c(O)c(=O)cc(C)c2C1`: the TGI in the assay with HS 578T breast is over 100 µM; with MCF7 breast it was 20.7 µM; in the assay with COLO 205 colon it was 15 µM; in the assay on SNB-75 CNS it was over 83.3 µM; in the assay on ACHN renal it was 14.1 µM; with KM12 colon it was over 100 µM. Besides, the TGI is over 63 µM in the assay on NCI-H226 lung, over 100 µM in the assay on SF-295 CNS, 48.9 µM in the assay with NCI-H23 lung and over 100 µM with BT-549 breast.

Turning to `Nc1c(C(=O)c2cccc(C(O)CO)c2)cnn1-c1ccc(F)cc1` (stereo not drawn), the GI50 in the assay with HS 578T breast, in the assay on MCF7 breast, with COLO 205 colon, with SNB-75 CNS, in the assay on ACHN renal and with KM12 colon was over 25 µM each time. Also, the GI50 with NCI-H226 lung, in the assay on SF-295 CNS, with NCI-H23 lung and in the assay on BT-549 breast was over 25 µM throughout. Moreover, the TGI with HS 578T breast, in the assay on MCF7 breast, with COLO 205 colon, in the assay on SNB-75 CNS, with ACHN renal and in the assay on KM12 colon was over 25 µM in each case. Also, the TGI in the assay on NCI-H226 lung, with SF-295 CNS, in the assay with NCI-H23 lung and in the assay on BT-549 breast was over 25 µM each time.

On to `O=C1CS/C(=N/S(=O)(=O)c2ccc(N3N=C4c5ccccc5CC4C3c3cccs3)cc2)N1C(=O)c1ccccc1` (stereo not drawn), for which the GI50 in the assay on HS 578T breast is 25.3 µM; in the assay on MCF7 breast, over 100 µM; in the assay on COLO 205 colon it was 51.1 µM; in the assay on SNB-75 CNS, over 100 µM; in the assay with ACHN renal, 39 µM; with KM12 colon, 21.4 µM. For the same compound, the GI50 in the assay with NCI-H226 lung was 58.5 µM; with SF-295 CNS, 31.7 µM; in the assay on NCI-H23 lung, 25.1 µM; in the assay on BT-549 breast it was 33.5 µM. For the same compound, the TGI in the assay on HS 578T breast is over 100 µM; with MCF7 breast, over 100 µM; in the assay on COLO 205 colon it was over 100 µM; in the assay with SNB-75 CNS it was over 100 µM; in the assay with ACHN renal it was over 100 µM; with KM12 colon, 56.4 µM. For the same compound, the TGI was over 100 µM in the assay on NCI-H226 lung, over 100 µM in the assay with SF-295 CNS, 61.1 µM in the assay on NCI-H23 lung and over 100 µM with BT-549 breast.

As for `Cc1nc(NS(=O)(=O)c2ccc(NCN3C(=O)c4ccccc4C3=O)cc2)oc1C`, the GI50 with HS 578T breast, in the assay on MCF7 breast, in the assay with COLO 205 colon, with SNB-75 CNS, in the assay on ACHN renal and in the assay on KM12 colon was over 100 µM each time. In addition, the GI50 with NCI-H226 lung, in the assay with SF-295 CNS, in the assay with NCI-H23 lung and in the assay on BT-549 breast was over 100 µM in each case. Further, the TGI in the assay on HS 578T breast, with MCF7 breast, with COLO 205 colon, with SNB-75 CNS, in the assay on ACHN renal and in the assay with KM12 colon was over 100 µM each time. Besides, the TGI in the assay on NCI-H226 lung, in the assay on SF-295 CNS, in the assay with NCI-H23 lung and in the assay with BT-549 breast was over 100 µM each time.

Take `CCCCCCCCCCCNC=O`: the TGI in the assay on HS 578T breast, in the assay with MCF7 breast, in the assay with COLO 205 colon, in the assay on SNB-75 CNS, in the assay on ACHN renal and with KM12 colon was over 100 µM in each case. Besides, the TGI in the assay with NCI-H226 lung was over 100 µM; with SF-295 CNS, over 100 µM; in the assay with NCI-H23 lung it was over 100 µM; in the assay with BT-549 breast, 57.5 µM.

For `COc1cc(Cl)c(CC(=O)c2c[nH]c3ccccc23)cc1OC`, the TGI is over 100 µM in the assay on HS 578T breast; over 100 µM in the assay on MCF7 breast; over 100 µM in the assay on COLO 205 colon; 31.5 µM with SNB-75 CNS; over 100 µM in the assay with ACHN renal; over 100 µM in the assay with KM12 colon. Also, the TGI in the assay on NCI-H226 lung was 45.1 µM; in the assay with SF-295 CNS, over 68.3 µM; in the assay on NCI-H23 lung, over 100 µM; in the assay with BT-549 breast, over 100 µM.

Regarding `COc1ccc2nc(C)cc(Sc3nc4ccccc4s3)c2c1`, the GI50 in the assay with HS 578T breast was 0.923 µM; with MCF7 breast, 1.45 µM; with COLO 205 colon, 0.816 µM; in the assay on SNB-75 CNS it was 0.885 µM; in the assay on ACHN renal, 1.21 µM; with KM12 colon, 1.9 µM. The GI50 with NCI-H226 lung is 0.728 µM; in the assay with SF-295 CNS, 2.48 µM; with NCI-H23 lung it was 1.78 µM; in the assay with BT-549 breast, 1.28 µM. Besides, the TGI in the assay with HS 578T breast amounted to 3.57 µM; with MCF7 breast it was 11.1 µM; in the assay with COLO 205 colon, 2.58 µM; in the assay on SNB-75 CNS it was 5.12 µM; in the assay with ACHN renal it was 5.77 µM; with KM12 colon, 5.07 µM. For the same compound, the TGI in the assay with NCI-H226 lung was 4.1 µM; in the assay on SF-295 CNS, 13.2 µM; in the assay with NCI-H23 lung, 7.56 µM; in the assay with BT-549 breast, 4.45 µM.

`NC(N)=NC(N)=Nc1ccc(C(=O)O)cc1`: the TGI in the assay with HS 578T breast, in the assay with MCF7 breast, in the assay with COLO 205 colon, in the assay on SNB-75 CNS, with ACHN renal and in the assay on KM12 colon was over 100 µM each time. Besides, the TGI in the assay on NCI-H226 lung, in the assay on SF-295 CNS, with NCI-H23 lung and in the assay with BT-549 breast was over 100 µM each time.

For the compound `COc1ccc(C2NN=C3c4ccccc4CCC32)cc1` (stereo not drawn), the GI50 in the assay on HS 578T breast was 15 µM; with MCF7 breast, 2.56 µM; with COLO 205 colon, 7.8 µM; with SNB-75 CNS, 0.284 µM; with ACHN renal it was 24.5 µM; in the assay on KM12 colon it was 3.99 µM. Also, the GI50 was over 100 µM in the assay on NCI-H226 lung, 2.48 µM in the assay with SF-295 CNS, 12.6 µM with NCI-H23 lung and 5.29 µM with BT-549 breast. Also, the TGI with HS 578T breast was over 100 µM; in the assay with MCF7 breast, 11.5 µM; with COLO 205 colon, 22.5 µM; in the assay with SNB-75 CNS, 5.58 µM; in the assay on ACHN renal, over 100 µM; in the assay with KM12 colon, over 100 µM. Besides, the TGI with NCI-H226 lung is over 100 µM; in the assay on SF-295 CNS, 13.2 µM; in the assay on NCI-H23 lung, 93.3 µM; in the assay with BT-549 breast, 95.4 µM.

Consider `CC(=O)c1c[nH]c2ccc(-c3ccnc(Nc4ccc(NC(=O)C5CCCC5)c(CN5CCOCC5)c4)n3)cc12`, for which the GI50 in the assay with HS 578T breast was 0.0207 µM; in the assay on MCF7 breast, 0.0304 µM; in the assay on COLO 205 colon, 0.0194 µM; with ACHN renal, 0.0305 µM; in the assay with KM12 colon it was 0.0258 µM; in the assay on NCI-H226 lung, 0.0298 µM. Also, the GI50 with SF-295 CNS was 0.0397 µM; in the assay on NCI-H23 lung, 0.0344 µM; with BT-549 breast, 0.0328 µM. Besides, the TGI came out at 0.105 µM with HS 578T breast; 0.174 µM with MCF7 breast; 0.0679 µM in the assay with COLO 205 colon; 0.042 µM with SNB-75 CNS; 0.141 µM in the assay on KM12 colon; 0.284 µM with NCI-H226 lung. Further, the TGI stood at 0.611 µM with SF-295 CNS, 0.364 µM in the assay with NCI-H23 lung and 0.904 µM in the assay with BT-549 breast.

On to `COc1ccc2c(c1O)[C@@]13CCCC=C1[C@@H](C2)[N+](C)(C)CC3`, for which the TGI with HS 578T breast, in the assay with MCF7 breast, with COLO 205 colon, in the assay on SNB-75 CNS, in the assay with ACHN renal and with KM12 colon was over 100 µM in each case. The TGI in the assay with NCI-H226 lung, in the assay on SF-295 CNS, in the assay on NCI-H23 lung and in the assay with BT-549 breast was over 100 µM throughout.
